According to patent US20050059014A1, “Analytical platform and detection method with the analytes to be determined in a sample as immobilized specific binding partners” (priority 2002, published 2005):

Tested on: Phospho-p44/42 MAP kinase (pErk2)
Test: Cell lysate array on evanescent field sensor platform, detection with antibody A3
Type: cell-based, human
Details: Jurkat cells, staurosporine 10 μM, 180 min
Description: Human T-cell cultures (Jurkat, DMZ # ACC282) are utilized for the detection of biologically relevant protein analytes in “nature-identical” samples. These cells are cultivated at 37° C. in a solution containing RPMI 1640, 10 % FCS (fetal calf serum), 2 mM glutamine, 50 U/ml penicillin, 50 μg/ml streptamycine (cell density at about 0.5−×10^6−1.0×10^6 cells/ml).
Then the cell cultures treated as described above and the untreated cell cultures, respectively, are cooled to 4° C. and formed to pellets by centrifugation at a centrifugal force of 350×g (number of cells at about 10^7).The cells here are simply separated from the medium, without damage to the cells. […]
The fluorescence signals from the various arrays of measurement areas undergo automatic sequential measurement using a ZeptoREADER™ (Zeptosens AG, Benkenstrasse 254, CH-4108 Witterswil). […] Then, for each array, images of the fluorescence signals from the corresponding array are generated, wherein the user can select different exposure times and the number of images to be generated. In the case of measurements for the present example, the excitation wavelength is 633 nm, and the detection of the fluorescence light at the fluorescence wavelength of Cy5 is performed using a cooled camera, an interference filter (transmission 670 nm ±20 nm) for suppression of scattered light being positioned in front of the lens of the camera. […]

SMILES: CN[C@@H]1C[C@H]2O[C@@](C)([C@@H]1OC)n1c3ccccc3c3c4c(c5c6ccccc6n2c5c31)C(=O)NC4 [staurosporin, staurosporine]
- pErk2 signal of the nonstimulated control sample compared with the sample treated with staurosporin: only slightly higher
